Here are results for eleven compounds from PubChem BioAssay (NCI).

Where “and” joins values, the source holds several entries; their conditions need not be identical. Equal values may be shown once.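 How tested: cells in 96-well plates exposed to compound for 48 hours at five concentrations. GI50: concentration for 50% inhibition of growth. Definition used: TGI = concentration required for complete inhibition of growth.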 *1 amine or outer side, *2 acyl side, *3 side chain or, on linkers, in order; H or OH if unused. Where a SMILES comes first, the peptide text is derived from it. Bridges are numbered along the chain shown (N, C = ends). Roman numbers before positions name the chains, in order. [ ]: non-standard residue; d: D form. Actinocin(9to1) = Cc1c2oc3c(C)ccc(C(=O)[*:1])c3nc-2c(C(=O)[*:2])c(N)c1=O; NMeF = CN[CH](Cc1ccccc1)C(=O)O; Sar = CNCC(=O)O Some results are limits rather than exact numbers.

Assay in all cases: NCI-60 cell line screen, 48 h
The test system of test [1] is SR leukemia.
In test [2] the test system is OVCAR-8 ovarian.
Test [3] relates to SF-295 CNS.
In test [4] the test system is SK-MEL-2 melanoma.
In test [5] the test system is SK-MEL-5 melanoma.
For test [6], the system named is MOLT-4 leukemia.
Test [7] deals with TK-10 renal.
Test [8] relates to U251 CNS.
In test [9] the test system is SNB-75 CNS.
Test [10] relates to NCI/ADR-RES ovarian.

As for `CCN(CC)C(=S)[S][Bi]([S]C(=S)N(CC)CC)[S]C(=S)N(CC)CC`, the GI50 in test [1] was 35.3 nM; in [2], 284 nM; in [3], 1730 nM; in test [4] it was 300 nM; in test [5], 634 nM; in test [6] it was 94.5 nM. Besides, the GI50 in test [7] was 197 nM; in test [8], 1120 nM; in [9], 213 nM; in test [10], 277 nM. The TGI is 23400 nM in test [1]; 755 nM in test [2]; 3160 nM in test [3]; 774 nM in test [4]; 1700 nM in test [5]; 2280 nM in test [6]. Besides, the TGI in test [7] came to 374 nM; in test [8], 2340 nM; in [9], 527 nM; in test [10], 850 nM.

As to `CN(C)CCCn1c(-c2nonc2N)nc2cnccc21`, the GI50 in [1], in test [2], in test [3], in test [4], in test [5] and in test [6] was above 25000 nM throughout. Also, the GI50 in test [7] was above 9980 nM; in test [8], above 25000 nM; in [9] it was 8060 nM; in test [10], above 25000 nM. The TGI in test [1], in test [2], in test [3], in test [4], in [5] and in test [6] was above 25000 nM in each case. Moreover, the TGI in test [7], in [8], in test [9] and in test [10] was above 25000 nM in each case.

As to `CCCCCCCCCCCCCCCCCC(=O)Nc1ccn(C2OC(CO)C(O)C2O)c(=O)n1` (stereo not drawn), the TGI in test [1] was 56400 nM; in [2], above 84800 nM; in [3], above 100000 nM; in test [4] it was above 100000 nM; in [5], above 97500 nM; in test [6], 23100 nM. Also, the TGI in test [7] was above 100000 nM; in test [8], above 100000 nM; in test [9] it was above 94600 nM; in test [10] it was above 100000 nM.

Consider `CCSc1ccc(C2C(Br)C(=O)N2c2cc(OC)c(OC)c(OC)c2)cc1` (stereo not drawn), for which the GI50 in test [1] is 76.5 nM; in test [2] it was 403 nM; in test [3], 87 nM; in [4], 484 nM; in test [5] it was 86.1 nM; in [6] it was 347 nM. Also, the GI50 in test [7] is 14300 nM; in test [8] it was 345 nM; in test [9], 509 nM; in test [10] it was 125 nM. The TGI in test [1] is 26300 nM; in test [2] it was 51800 nM; in test [3] it was above 100000 nM; in test [4], above 100000 nM; in [5] it was 2840 nM; in test [6] it was 88900 nM. The TGI in test [7] is 33400 nM; in [8], 39800 nM; in [9], above 100000 nM; in test [10] it was above 100000 nM.

As for `C[C@@H]1COCCN1c1cc(C2(O)C[C@H]3CC[C@@H](C2)O3)c2cnn(-c3ccn[nH]3)c2n1` (stereo partly drawn), the GI50 in [1] was 11.2 nM; in test [2], 145 nM; in [3], 32.9 nM; in test [4], 30.4 nM; in test [5] it was 107 nM; in [6] it was 43.7 nM. Further, the GI50 in [7] was 51.5 nM; in test [8], 137 nM; in test [9], 43 nM; in [10], 154 nM. Moreover, the TGI in [1] is 26900 nM; in test [2], 1560 nM; in [3] it was 308 nM; in test [4] it was 202 nM; in test [5] it was 279 nM; in test [6] it was above 67300 nM. Besides, the TGI in [7] was 1010 nM; in test [8], 8620 nM; in [9], 411 nM; in test [10], 1100 nM.

As to `O=C(O)/C(=C\c1ccncc1)c1cccc2ccccc12`, the TGI in test [1], in test [2], in [3], in test [4], in test [5] and in [6] was above 100000 nM each time. For the same compound, the TGI in test [7], in test [8], in test [9] and in test [10] was above 100000 nM in each case.

For `Cc1cccc(Cc2cnc(NC(=O)CCc3ccc(C)o3)s2)c1`, the GI50 in [1] is 54.3 nM; in test [2] it was 406 nM; in test [3] it was 195 nM; in [4], 404 nM; in [5], 107 nM; in [6] it was 371 nM. The GI50 in [7] is 1490 nM; in test [8], 293 nM; in [9], 165 nM; in test [10] it was 228 nM. For the same compound, the TGI in test [1] is above 100000 nM; in test [2], above 100000 nM; in test [3], 12600 nM; in [4], above 100000 nM; in test [5], 6080 nM; in test [6], above 100000 nM. Further, the TGI was above 100000 nM in test [7], above 100000 nM in [8], 5670 nM in test [9] and above 100000 nM in [10].

In the case of `O=C(c1ccccc1)c1c(C(F)(F)F)n([O-])c2ccc(C(F)(F)F)cc2[n+]1=O`, the GI50 in test [1] was 109 nM; in test [2], 1200 nM; in test [3], 548 nM; in test [4], 1240 nM; in test [5], 504 nM; in test [6] it was 90.2 nM. Also, the GI50 in [7] is 636 nM; in [8] it was 166 nM; in test [9], 520 nM; in test [10] it was 239 nM. Further, the TGI in [1] was determined as 393 nM; in test [2], 3570 nM; in test [3], 1110 nM; in test [4], 2960 nM; in test [5], 933 nM; in test [6] it was 313 nM. For the same compound, the TGI was 1350 nM in test [7], 305 nM in [8], 1130 nM in test [9] and 688 nM in test [10].

For the compound `C[C@@H](Nc1nc(Nc2ccc(F)c(Cl)c2)nc2ccccc12)C1CC1`, the GI50 in test [1] was 1630 nM; in test [2], 3580 nM; in test [3], 1880 nM; in test [4], 5880 nM; in test [5], 1550 nM; in test [6] it was 1730 nM. Further, the GI50 in test [7] is 6960 nM; in test [8], 3720 nM; in test [9] it was 4080 nM; in [10] it was 2300 nM. The TGI in test [1] is 5260 nM; in [2] it was 20500 nM; in test [3], 8920 nM; in [4], 24900 nM; in [5] it was 2960 nM; in test [6] it was 5380 nM. For the same compound, the TGI was found to be 20300 nM in test [7], 14500 nM in test [8], 22300 nM in [9] and 8520 nM in test [10].

For `Cc1c2oc3c(C)ccc(C(=O)NC4C(=O)NC(C(C)C)C(=O)N5CCCC5C(=O)N(C)CC(=O)N(C)C(Cc5ccccc5)C(=O)OC4C)c3nc-2c(C(=O)NC2C(=O)NC(C(C)C)C(=O)N3CCCC3C(=O)N(C)CC(=O)N(C)C(Cc3ccccc3)C(=O)OC2C)c(N)c1=O` (stereo not drawn) (I: TVP[Sar][NMeF] / II: TVP[Sar][NMeF]; ester I:1-I:C, II:1-II:C; linker I:N-II:N via Actinocin(9to1); configuration not given here), the GI50 in test [1] was 0.199 nM; in [6] it was 0.346 nM; in test [7], < 10 nM and 49 nM; in test [8], < 10 nM and 2.2 nM. Also, the TGI in test [2] is 132 nM and 54 nM; in [3], < 14.1 nM and 108 nM; in test [4], < 10 nM and 32.6 nM; in test [5] it was < 10 nM and 47.9 nM; in [6], 4.14 nM; in test [7], above 1000 nM. Also, the TGI in test [8] was < 43.5 nM and 159 nM; in test [9], 64.5 nM; in [10] it was above 1000 nM.

As to `CC[C@H](C)C(=O)O[C@H]1C[C@H](O)C=C2C=C[C@H](C)[C@H](CC[C@@H](O)C[C@@H](O)CC(=O)O)[C@H]21`, the GI50 in test [1], in [2], in test [3], in test [4], in test [5] and in test [6] was above 100000 nM each time. Moreover, the GI50 in test [7], in test [8], in test [9] and in [10] was above 100000 nM throughout. Also, the TGI in test [1], in test [2], in [3], in test [4], in [5] and in test [6] was above 100000 nM throughout. The TGI in test [7], in test [8], in test [9] and in test [10] was above 100000 nM in each case.
